In patent EP0411567A1, “5-(omega-Aminoacyl)-5,10-dihydro-11H-dibenzo[b,e][1,4]-diazepin-11-ones, processes for their preparation, and their use as medicaments” (ARZNEIMITTELWERK DRESDEN GmbH, priority 1989, dated 1991):
Where a name gives a salt, the structure may show the parent alone. Read-outs that look alike come from different tables or passages of the source.

What was measured:
[1] = system: CaCl₂-Arrhythmie der Ratte; experiment: CaCl₂-induced arrhythmia in the rat (antifibrillatory effect); format: in vivo; details: iv; for ED50: Rattus norvegicus, read-out: CaCl₂-Arrhythmie Ratte, ED₅₀
Source text: (§1) ED₅₀ i.v. = Dosis in mg/kg, welche die fibrillatorische Wirkung von CaCl₂ an Ratten nach I.v.-Applikation der Testsubstanz um 50 % unterdrückt. Berechnung nach der Probit-Regressionsanalyse mit Vertrauensbereich, p = 0,05 (Werte in Klammern) LD₅₀ i.v. = Letale Dosis in mg/kg bei 50 % der Versuchstiere einer orientierenden Bestimmung der akuten Toxizität an Wistarratten hauseigener Zucht, I.v.-Applikation in die Schwanzvene, 3 - 4 Dosierungen zu je 10 Tieren.

Wistarratten = experiment: Orienting determination of acute toxicity in rats, i.v.; format: in vivo, Ratte; details: therapeutic breadth; rat LD₅₀ i.v. / rat CaCl₂-arrhythmia ED₅₀
Source text: Die Verbindungen der allgemeinen Formeln I, VII bzw.
as §1
(§2) Berechnung nach der Probit-Regressionsanalyse mit Vertrauensbereich, p = 0,05 (Werte in Klammern) [formula] zur Ermittlung der therapeutischen Breite eff. Dosis = effektive Dosis in mg/kg Wirkungsdauer = Wirkungsdauer in Minuten an Hunden, 24 h nach zweistufiger Koronarligatur

[2] = system: Hunden, 24 Stunden nach zweistufiger Koronarligatur (Harris-Modell); experiment: Two-stage coronary ligation in the dog (Harris model); format: in vivo, Hund; details: for Ektopische Kontraktionen in Prozent/min / Gesamtzahl der Herzkontraktionen/min: mean x; for Harris Hund Wirkungsdauer / Harris Hund eff. Dosis i.v.: dogs, 24 h after two-stage coronary ligation; for Harris Hund Wirkungsdauer: at the effective i.v. dose
Experimental: Am Modell der zweistufigen Koronarligatur am Hund nach Harris (Methodik bei Kaverina und Mitarbeiter, Pharmazie 40, S. 845 (1985)) zeigen die Verbindungen der allgemeinen Formeln I, VII bzw. X eine starke und langanhaltende Wirkung (siehe Tabellen 2 und 3).
Bereits in der 5. Minute nach der intravenösen Injektion der Verbindungen der allgemeinen Formeln I, VII bzw. X in einer Konzentration von 0,005 mmol/kg (ca. 2,0 mg/kg) wird die ektopischeArrhythmie um das 2- bis 3-fache des Basiswertes unterdrückt, während die Gesamtzahl der Herzkontraktionen konstant bleibt. Die Wirkung auf die ektopische Arrhythmie hält 30 bis 60 Minuten lang an. Tabelle 1
as §2
x = Mittelwert s = Standardabweichung ±

[3] = system: Hunden, 24 Stunden nach zweistufiger Koronarligatur (Harris-Modell); details: Harris model, cited from earlier work
[4] = dose suppressing the fibrillatory effect of CaCl₂ by 50 %, probit regression, confidence range p = 0,05 in brackets
[5] = 30 min after 0,005 mmol/kg i.v.
[6] = 60 min after 0,005 mmol/kg i.v.
[7] = 120 min after 0,005 mmol/kg i.v.
[8] = 180 min after 0,005 mmol/kg i.v.
[9] = Basis (before injection), 0,005 mmol/kg group
[10] = 300 min after 0,005 mmol/kg i.v.
[11] = 360 min after 0,005 mmol/kg i.v.
[12] = 5 min after 0,02 mmol/kg (5,4 mg/kg)
[13] = 30 min after 0,02 mmol/kg (5,4 mg/kg)
[14] = Basis (before injection), 0,02 mmol/kg (5,4 mg/kg) group

| Structure (SMILES) | ED50 [1, 4] | Q LD₅₀/ED₅₀ (Wistarratten) | Ektopische Kontraktionen in Prozent/min ([2]; 5 min after 0,005 mmol/kg i.v.) | Gesamtzahl der Herzkontraktionen/min ([2]; 5 min after 0,005 mmol/kg i.v.) | Ektopische Kontraktionen in Prozent/min [2, 5] | Gesamtzahl der Herzkontraktionen/min [2, 5] | Ektopische Kontraktionen in Prozent/min [2, 6] | Gesamtzahl der Herzkontraktionen/min [2, 6] | Ektopische Kontraktionen in Prozent/min [2, 7] | Gesamtzahl der Herzkontraktionen/min [2, 7] | Ektopische Kontraktionen in Prozent/min [2, 9] | Gesamtzahl der Herzkontraktionen/min [2, 9] | Harris Hund Wirkungsdauer [2] | Harris Hund eff. Dosis i.v. [2] | also measured |
| --- | --- | --- | --- | --- | --- | --- | --- | --- | --- | --- | --- | --- | --- | --- | --- |
| CN(C)CCCCCC(=O)N1c2ccccc2NC(=O)c2ccccc21 [Beispiel 1, 5-(6-Dimethylaminocapronyl)-5,10-dihydro-11H-dibenzo [b,e]-[1,4] diazepin-11-on·HCl] | 0.41 mg/kg | 207 | 30 Prozent | 192 min⁻¹ | 47 Prozent | 193 min⁻¹ | 54 Prozent | 177 min⁻¹ | 68 Prozent | 175 min⁻¹ | 99 Prozent | 164 min⁻¹ | 60 min | 1,76 mg/kg | Ektopische Kontraktionen in Prozent/min [2, 8]: 80 Prozent; Gesamtzahl der Herzkontraktionen/min [2, 8]: 169 min⁻¹ |
| CCN(CC)CCCC(=O)N1c2ccccc2NC(=O)c2ccccc21 [Beispiel 2, 5-(4-Diethylaminobutyryl)-5,10-dihydro-11H-dibenzo[b,e]-[1,4]diazepin-11-on] | – | – | 26 Prozent | – | 24 Prozent | – | 75 Prozent | – | 90 Prozent | – | 88 Prozent | – | – | – | – |
| CCN(CC)CCCC(=O)N1c2ccc(Cl)cc2NC(=O)c2ccccc21 [Beispiel 4, 8-Chlor-5-(4-diethylaminobutyryl)-5,10-dihydro-11H-dibenzo[b,e] [1,4]diazepin-11-on] | 0.044 mg/kg | 1614 | – | 175 min⁻¹ | – | 180 min⁻¹ | – | 181 min⁻¹ | – | 183 min⁻¹ | – | 183 min⁻¹ | 30 min | 1,93 mg/kg | – |
| CCN(CC)CCCCCC(=O)N1c2ccc(Cl)cc2NC(=O)c2ccccc21 [Beispiel 6, 8-Chlor-5-(6-diethylaminocapronyl)-5,10-dihydro-11H-dibenzo[be] [1,4]diazepin-11-on] | 0.44 mg/kg | 86 | 20 Prozent | 170 min⁻¹ | 4 Prozent | 159 min⁻¹ | 37 Prozent | 162 min⁻¹ | 76 Prozent | 162 min⁻¹ | 78 Prozent | 167 min⁻¹ | 60 min | 2,07 mg/kg | – |
| O=C1Nc2cc(Cl)ccc2N(C(=O)CCCCCCN2CCOCC2)c2ccccc21 [Beispiel 9, 8-Chlor-5-(7-N-morpholinoönanthoyl)-5,10-dihydro-11H-dibenzo [b,e] [1,4]diazepin-11-on] | 0.16 mg/kg | 256 | 21 Prozent | 179 min⁻¹ | 38 Prozent | 164 min⁻¹ | 42 Prozent | 168 min⁻¹ | 42 Prozent | 156 min⁻¹ | 90 Prozent | 156 min⁻¹ | 120 min | 2,21 mg/kg | Ektopische Kontraktionen in Prozent/min [2, 8]: 73 Prozent; Gesamtzahl der Herzkontraktionen/min [2, 8]: 159 min⁻¹; Ektopische Kontraktionen in Prozent/min [2, 10]: 79 Prozent; Gesamtzahl der Herzkontraktionen/min [2, 10]: 163 min⁻¹; Ektopische Kontraktionen in Prozent/min [2, 11]: 89 Prozent; Gesamtzahl der Herzkontraktionen/min [2, 11]: 180 min⁻¹ |
| C=CC1CN2CCC1CC2C(O)c1ccnc2ccc(OC)cc12 (centres unmarked) [Chinidin] | – | – | – | – | – | – | – | – | – | – | – | – | – | – | CaCl₂-Arrhythmie Ratte, ED₅₀ ([1]; in vivo): 2,7 (2,0 - 3,7) mg/kg; Harris Hund Wirkungsdauer ([3]; dogs, listed as whose dose is marked [1] (literature)): 15 min; Harris Hund eff. Dosis i.v. ([3]; dogs, value marked [1] (Mokler and van Arman 1962)): 10,0 [1] mg/kg; Gesamtzahl der Herzkontraktionen ([3]; in words, literature [1]): Abnahme; ektopische Arrhythmie ([3]; in words, literature [1]): Abnahme |
| CCN(CC)CC(=O)Nc1c(C)cccc1C [Lidocain, reference compound] | – | – | – | – | – | – | – | – | – | – | – | – | 15 min | 8,0 mg/kg | ED50 [1]: 3.1 mg/kg; Ektopische Kontraktionen in Prozent/min [2, 12]: 34 Prozent; Gesamtzahl der Herzkontraktionen/min [2, 12]: 139 min⁻¹; Ektopische Kontraktionen in Prozent/min [2, 13]: 78 Prozent; Gesamtzahl der Herzkontraktionen/min [2, 13]: 138 min⁻¹; Ektopische Kontraktionen in Prozent/min [2, 14]: 83 Prozent; Gesamtzahl der Herzkontraktionen/min [2, 14]: 146 min⁻¹; Gesamtzahl der Herzkontraktionen ([2]; in words, Harris model): Abnahme; ektopische Arrhythmie ([2]; in words, Harris model): Abnahme |
